Values quoted from earlier work as cited in US7795220B2, “Conformationally constrained parathyroid hormones with alpha-helix stabilizers” (The General Hospital Corporation, priority 2003, dated 2010).

Biological target: T1, P1R (Homo sapiens, UniProt Q03431)
T1 sequence (Q03431 27-593): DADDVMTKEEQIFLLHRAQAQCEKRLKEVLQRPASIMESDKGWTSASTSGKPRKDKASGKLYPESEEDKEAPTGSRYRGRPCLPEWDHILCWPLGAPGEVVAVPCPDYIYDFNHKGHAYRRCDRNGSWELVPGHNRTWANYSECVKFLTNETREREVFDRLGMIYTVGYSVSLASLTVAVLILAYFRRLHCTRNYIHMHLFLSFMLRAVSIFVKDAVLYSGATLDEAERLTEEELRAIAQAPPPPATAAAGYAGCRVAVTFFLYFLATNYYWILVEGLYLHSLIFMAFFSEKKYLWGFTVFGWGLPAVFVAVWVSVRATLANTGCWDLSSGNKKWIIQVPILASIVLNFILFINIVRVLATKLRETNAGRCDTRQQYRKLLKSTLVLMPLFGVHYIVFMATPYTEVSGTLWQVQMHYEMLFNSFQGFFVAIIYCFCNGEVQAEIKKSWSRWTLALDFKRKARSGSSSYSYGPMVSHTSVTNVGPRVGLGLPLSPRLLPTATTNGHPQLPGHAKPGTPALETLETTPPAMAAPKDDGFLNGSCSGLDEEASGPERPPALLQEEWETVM
Conditions: literature; read-out: cAMP-signaling potency (EC50); cited from earlier work

PTH(1-34)
EC50: ~2 nM
